The values that follow come from patent publication US8163740B2, “6-substituted benzoxazines” (Hoffmann-La Roche Inc., priority 2008, dated 2012).

Each structure is given as a SMILES string.

Chain of recombinant human 5-HT5A receptor (P47898 whole entry): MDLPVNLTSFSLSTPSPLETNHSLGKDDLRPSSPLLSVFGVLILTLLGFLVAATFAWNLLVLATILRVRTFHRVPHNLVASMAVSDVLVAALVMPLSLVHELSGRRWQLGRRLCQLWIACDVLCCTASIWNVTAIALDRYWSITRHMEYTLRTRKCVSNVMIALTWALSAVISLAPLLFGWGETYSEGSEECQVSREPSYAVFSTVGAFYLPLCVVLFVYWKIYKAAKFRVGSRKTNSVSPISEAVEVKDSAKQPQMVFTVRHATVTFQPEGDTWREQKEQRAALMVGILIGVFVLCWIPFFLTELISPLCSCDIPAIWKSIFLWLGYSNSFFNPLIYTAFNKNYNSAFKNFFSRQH

The assay concerns the target recombinant human 5-HT5A receptor (Homo sapiens, UniProt P47898). Nature of the assay: [3H]LSD radioligand binding assay. The following applies: [3H]LSD (approximately 1 nM); membranes from HEK-EBNA cells transiently expressing 5-HT5A; Ki by Cheng-Prussoff equation; read-out: Ki. The method, then:
A [^3H]LSD radioligand binding assay was used to determine the affinity of the compounds for the recombinant human 5-HT5A receptor, in membranes from transiently (cDNA) expressed 5-HT5A receptors in Human Embryonic Kidney-EBNA (HEK-EBNA) cells. Assay buffer consisted of Tris (50 mM) buffer containing 1 mM EGTA, 10 mM MgCl2 (pH 7.4) and 10 μM pargyline. The binding assay was carried out in 96-well-plates in the presence of [^3H]LSD (approximately 1 nM), approximately 2 μg/well of membrane protein, and 0.5 mg of Ysi-poly-1-lysine SPA beads in a final volume of 200 μl of buffer. Non-specific binding was defined using methiothepin 2 μM. Compounds were tested at 10 concentrations. All assays were conducted in duplicate and repeated at least two times. Assay plates were incubated for 120 min at room temperature before centrifugation. Bound ligand was determined using a Packard Topcount scintillation counter. IC50 values were calculated using a non-linear curve fitting program and Ki values calculated using the Cheng-Prussoff equation.
With `COC[C@@H]1CN(CC(=O)Nc2ccc3c(c2)COC(N[C@@H]2CCc4ccccc42)=N3)C[C@@H](COC)N1C` (mixture of isomers) [Example 158, 2-((3SR,5SR)-3,5-Bis-(methoxymethyl)-4-methyl-piperazin-1-yl)-N-[2-((R)-indan-1-ylamino)-4H-benzo[d][1,3]oxazin-6-yl]-acetamide], the inhibitory constant (Ki) stood at 16.1 nM.
The figure for `COc1cccc2c1C(NC1=Nc3ccc([N+](=O)[O-])cc3CO1)CO2` (racemic) [Example 5, rac-(4-Methoxy-2,3-dihydro-benzofuran-3-yl)-(6-nitro-4H-benzo[d][1,3]oxazin-2-yl)-amine] is 368 nM; for `COc1cccc2c1C(NC1=Nc3ccc(N)cc3CO1)CO2` (racemic) [Example 6, rac-N^2-(4-Methoxy-2,3-dihydro-benzofuran-3-yl)-4H-benzo[d][1,3]oxazine-2,6-diamine] it is 7.83 nM; for `COc1cccc2c1C(NC1=Nc3ccc(NC(=O)CCl)cc3CO1)CO2` (racemic) [Example 8, rac-2-Chloro-N-[2-(4-methoxy-2,3-dihydro-benzofuran-3-ylamino)-4H-benzo[d][1,3]oxazin-6-yl]-acetamide] it is 20.7 nM.
The figure for `COc1cccc2c1C(NC1=Nc3ccc(NC(=O)CN4CCN(C)CC4)cc3CO1)CO2` (racemic) [Example 9, rac-N-[2-(4-Methoxy-2,3-dihydro-benzofuran-3-ylamino)-4H-benzo[d][1,3]oxazin-6-yl]-2-(4-methyl-piperazin-1-yl)-acetamide] is 5.69 nM; for `COc1cccc2c1C(NC1=Nc3ccc(N)cc3CO1)CC2` (racemic) [Example 10, rac-N^2-(7-Methoxy-indan-1-yl)-4H-benzo[d][1,3]oxazine-2,6-diamine] it is 1.2 nM.
In the case of `Nc1ccc2c(c1)COC(NC1CCc3cc(F)ccc31)=N2` (racemic) [Example 11, rac-N^2-(5-Fluoro-indan-1-yl)-4H-benzo[d][1,3]oxazine-2,6-diamine], the inhibitory constant (Ki) was 1.26 nM.
The figure for `COc1cccc2c1C(NC1=Nc3ccc(NC(=O)CN4CCN(C(C)C)CC4)cc3CO1)CO2` (racemic) [Example 12, rac-2-(4-Isopropyl-piperazin-1-yl)-N-[2-(4-methoxy-2,3-dihydro-benzofuran-3-ylamino)-4H-benzo[d][1,3]oxazin-6-yl]-acetamide] is 9.28 nM.
In the case of `COc1cccc2c1C(NC1=Nc3ccc(NC(=O)CN4CCOCC4)cc3CO1)CO2` (racemic) [Example 13, rac-N-[2-(4-Methoxy-2,3-dihydro-benzofuran-3-ylamino)-4H-benzo[d][1,3]oxazin-6-yl]-2-morpholin-4-yl-acetamide], the Ki stood at 40.6 nM.
With `COc1cccc2c1C(NC1=Nc3ccc(NC(=O)NC4CCN(C(C)C)CC4)cc3CO1)CO2` (racemic) [Example 14, rac-1-(1-Isopropyl-piperidin-4-yl)-3-[2-(4-methoxy-2,3-dihydro-benzofuran-3-ylamino)-4H-benzo[d][1,3]oxazin-6-yl]-urea], the inhibition constant (Ki) stood at 4.37 nM.
The figure for `COc1cccc2c1C(NC1=Nc3ccc(NC(=O)N(C)C4CCN(C(C)C)CC4)cc3CO1)CO2` (racemic) [Example 15, rac-1-(1-Isopropyl-piperidin-4-yl)-3-[2-(4-methoxy-2,3-dihydro-benzofuran-3-ylamino)-4H-benzo[d][1,3]oxazin-6-yl]-1-methyl-urea] is 6.08 nM; for `COc1cccc2c1C(NC1=Nc3ccc(NC(=O)NC(C)C)cc3CO1)CO2` (racemic) [Example 16, rac-1-Isopropyl-3-[2-(4-methoxy-2,3-dihydro-benzofuran-3-ylamino)-4H-benzo[d][1,3]oxazin-6-yl]-urea] it is 2.93 nM; for `COCC(=O)Nc1ccc2c(c1)COC(NC1COc3cccc(OC)c31)=N2` (racemic) [Example 17, rac-2-Methoxy-N-[2-(4-methoxy-2,3-dihydro-benzofuran-3-ylamino)-4H-benzo[d][1,3]oxazin-6-yl]-acetamide] it is 26.1 nM.
To `O=C(Nc1ccc2c(c1)COC(NC1CCc3cc(F)ccc31)=N2)C1CC1` (racemic) [Example 20, rac-Cyclopropanecarboxylic acid [2-(5-fluoro-indan-1-ylamino)-4H-benzo[d][1,3]oxazin-6-yl]-amide] belongs 1.36 nM.
Consider `COCC(=O)Nc1ccc2c(c1)COC(NC1CCc3cc(F)ccc31)=N2` (racemic) [Example 21, rac-N-[2-(5-Fluoro-indan-1-ylamino)-4H-benzo[d][1,3]oxazin-6-yl]-2-methoxy-acetamide], for which the Ki turned out to be 5.5 nM.
In the case of `COc1cccc2c1C(NC1=Nc3ccc(N)cc3CO1)CCC2` (racemic) [Example 22, rac-N^2-(8-Methoxy-1,2,3,4-tetrahydro-naphthalen-1-yl)-4H-benzo[d][1,3]oxazine-2,6-diamine], the inhibitory constant (Ki) came to 7.72 nM.
To `COc1cccc2c1C(NC1=Nc3ccc(NC(=O)C4CC4)cc3CO1)CCC2` (racemic) [Example 23, rac-Cyclopropanecarboxylic acid [2-(8-methoxy-1,2,3,4-tetrahydro-naphthalen-1-ylamino)-4H-benzo[d][1,3]oxazin-6-yl]-amide] belongs 1.85 nM; to `COCC(=O)Nc1ccc2c(c1)COC(NC1CCc3cccc(OC)c31)=N2` (racemic) [Example 24, rac-2-Methoxy-N-[2-(7-methoxy-indan-1-ylamino)-4H-benzo[d][1,3]oxazin-6-yl]-acetamide], 4.83 nM.
To `COc1cccc2c1C(NC1=Nc3ccc(NC(=O)C4CC4)cc3CO1)CC2` (racemic) [Example 25, rac-Cyclopropanecarboxylic acid [2-(7-methoxy-indan-1-ylamino)-4H-benzo[d][1,3]oxazin-6-yl]-amide] belongs 1.06 nM; to `Nc1ccc2c(c1)COC(NC1COc3cc(F)ccc31)=N2` (racemic) [Example 34, rac-N^2-(6-Fluoro-2,3-dihydro-benzofuran-3-yl)-4H-benzo[d][1,3]oxazine-2,6-diamine], 4.26 nM.
Turning to `COCCNCC(=O)Nc1ccc2c(c1)COC(NC1COc3cc(F)ccc31)=N2` (racemic) [Example 42, rac-N-[2-(6-Fluoro-2,3-dihydro-benzofuran-3-ylamino)-4H-benzo[d][1,3]oxazin-6-yl]-2-(2-methoxy-ethylamino)-acetamide], the Ki was found to be 56.4 nM.
Regarding `CC(C)(O)CNCC(=O)Nc1ccc2c(c1)COC(NC1COc3cc(F)ccc31)=N2` (racemic) [Example 43, rac-N-[2-(6-Fluoro-2,3-dihydro-benzofuran-3-ylamino)-4H-benzo[d][1,3]oxazin-6-yl]-2-(2-hydroxy-2-methyl-propylamino)-acetamide], the Ki was determined as 50.3 nM.
To `CN1CCN(CC(=O)Nc2ccc3c(c2)COC(NC2COc4cc(F)ccc42)=N3)CC1` (racemic) [Example 44, rac-N-[2-(6-Fluoro-2,3-dihydro-benzofuran-3-ylamino)-4H-benzo[d][1,3]oxazin-6-yl]-2-(4-methyl-piperazin-1-yl)-acetamide] belongs 6.5 nM.
For the compound `O=C(CN1CCOCC1)Nc1ccc2c(c1)COC(NC1COc3cc(F)ccc31)=N2` (racemic) [Example 45, rac-N-[2-(6-Fluoro-2,3-dihydro-benzofuran-3-ylamino)-4H-benzo[d][1,3]oxazin-6-yl]-2-morpholin-4-yl-acetamide], the inhibitory constant (Ki) was 40.7 nM.
The figure for `COc1cccc2c1C(NC1=Nc3ccc(NS(=O)(=O)N(C)C)cc3CO1)CO2` (racemic) [Example 49, rac-N,N-(Dimethyl)-N′-{2-(4-Methoxy-2,3-dihydro-benzofuran-3-ylamino)-4H-benzo[d][1,3]oxazin-6-yl}-sulfamide] is 21.1 nM; for `COc1cccc2c1C(NC1=Nc3ccc(NS(=O)(=O)N4CCCCC4)cc3CO1)CO2` (racemic) [Example 50, rac-Piperidine-1-sulfonic acid [2-(4-methoxy-2,3-dihydro-benzofuran-3-ylamino)-4H-benzo[d][1,3]oxazin-6-yl]-amide] it is 26.9 nM; for `COc1cccc2c1C(NC1=Nc3ccc(NC(C)=O)cc3CO1)CO2` (racemic) [Example 51, rac-N-[2-(4-Methoxy-2,3-dihydro-benzofuran-3-ylamino)-4H-benzo[d][1,3]oxazin-6-yl]-acetamide] it is 23.7 nM.
To `COc1cccc2c1C(NC1=Nc3ccc(NC(C)=O)cc3CO1)CC2` (racemic) [Example 52, rac-N-[2-(7-Methoxy-indan-1-ylamino)-4H-benzo[d][1,3]oxazin-6-yl]-acetamide] belongs 4.98 nM.
For the compound `Fc1ccc2c(c1)CCC2NC1=Nc2ccc(Br)cc2CO1` (racemic) [Example 53, rac-(6-Bromo-4H-benzo[d][1,3]oxazin-2-yl)-(5-fluoro-indan-1-yl)-amine], the Ki amounted to 43.6 nM.
For `COc1cccc2c1C(NC1=Nc3ccc(NC(=O)CN4CCOCC4)cc3CO1)CC2` (racemic) [Example 55, rac-N-[2-(7-Methoxy-indan-1-ylamino)-4H-benzo[d][1,3]oxazin-6-yl]-2-morpholin-4-yl-acetamide], the Ki is 10.3 nM.
As for `O=C(CN1CCOCC1)Nc1ccc2c(c1)COC(NC1CCc3cc(F)ccc31)=N2` (racemic) [Example 56, rac-N-[2-(5-Fluoro-indan-1-ylamino)-4H-benzo[d][1,3]oxazin-6-yl]-2-morpholin-4-yl-acetamide], the inhibitory constant (Ki) is 13 nM.
To `Fc1ccc2c(c1)CCC2NC1=Nc2ccc(Nc3cccc(C(F)(F)F)n3)cc2CO1` (racemic) [Example 57, rac-N^2-(5-Fluoro-indan-1-yl)-N^6-(6-trifluoromethyl-pyridin-2-yl)-4H-benzo[d][1,3]oxazine-2,6-diamine] belongs 6.06 nM.

By Ki is commonly meant the dissociation constant of the complex between target and ligand, obtained from inhibition or displacement.
